The text below walks through data of patent US11420956B2, “Ureas having Androgen Receptor degradation activity and uses thereof” (ACCUTAR BIOTECHNOLOGY INC., priority 2019, dated 2022).

Holding throughout (assay type): cell-based
Conditions in all cases: 24 hours after administration

The target of test [1] is T1, androgen receptor (AR) (Homo sapiens, UniProt P10275, T878A).
T1 construct: endogenous in cells; host or cells: LNCAP
T1 sequence (P10275 1-920 T878A): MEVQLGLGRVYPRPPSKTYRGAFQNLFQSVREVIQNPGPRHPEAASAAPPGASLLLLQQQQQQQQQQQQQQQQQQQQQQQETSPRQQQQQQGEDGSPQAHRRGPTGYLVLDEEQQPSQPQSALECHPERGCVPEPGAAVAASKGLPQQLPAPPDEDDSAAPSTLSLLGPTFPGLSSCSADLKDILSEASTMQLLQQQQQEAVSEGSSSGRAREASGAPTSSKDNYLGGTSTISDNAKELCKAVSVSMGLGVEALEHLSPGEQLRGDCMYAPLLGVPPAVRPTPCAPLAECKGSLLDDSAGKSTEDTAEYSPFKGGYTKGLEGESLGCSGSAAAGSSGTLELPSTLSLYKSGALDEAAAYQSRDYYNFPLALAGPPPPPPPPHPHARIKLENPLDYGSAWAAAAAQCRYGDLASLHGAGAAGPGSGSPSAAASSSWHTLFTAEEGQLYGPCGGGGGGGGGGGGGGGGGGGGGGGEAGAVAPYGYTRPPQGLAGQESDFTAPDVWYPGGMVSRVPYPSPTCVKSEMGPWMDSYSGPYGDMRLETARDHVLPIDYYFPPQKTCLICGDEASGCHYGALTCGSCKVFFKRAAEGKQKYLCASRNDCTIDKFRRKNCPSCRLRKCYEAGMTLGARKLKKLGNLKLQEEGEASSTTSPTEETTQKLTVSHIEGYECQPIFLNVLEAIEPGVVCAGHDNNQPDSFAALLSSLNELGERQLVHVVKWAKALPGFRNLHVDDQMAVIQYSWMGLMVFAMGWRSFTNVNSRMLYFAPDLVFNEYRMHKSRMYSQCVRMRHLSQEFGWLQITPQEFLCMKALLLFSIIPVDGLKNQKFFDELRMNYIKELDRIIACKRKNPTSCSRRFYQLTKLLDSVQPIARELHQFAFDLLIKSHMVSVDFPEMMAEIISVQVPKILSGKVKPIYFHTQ
Put plainly: AR degradation in LNCAP cells (Western blot). The method in brief: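 Cells plated in RPMI with 10% FBS overnight, then treated with compound at various concentrations (from 1000× DMSO stocks) for 24 h at 37 °C. AR level measured by Western blot with GAPDH as loading control, infrared-fluorescent detection and band quantification; DC50 is concentration giving 50% AR degradation.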

In test [2] the target is T2, androgen receptor (AR) (Homo sapiens, UniProt P10275).
T2 construct: endogenous in cells; host or cells: VCAP
T2 sequence (P10275 1-920): T1 sequence (P10275 1-920 T878A) with A878T
Briefly: AR degradation in VCAP cells (Western blot). The method, then:
(§1) LNCAP, VCAP and 22Rv1 cells were plated in 24-well plates at 1.5×10E5 cells/well in the RPMI growth medium containing 10% FBS and 1% Penicillin Streptomycin, and then incubated at 37° C. overnight. The following day, the test compound was administered to the cells by using 1000× compound stock solution prepared in DMSO at various concentrations. After administration of the compound, the cells were then incubated at 37° C. for 24 hours. Upon completion, the cells were washed with PBS and protein was collected in Laemmli sample buffer (1×; VWR International). Proteins in cell lysate were separated by SDS-PAGE and transferred to Odyssey nitrocellulose membranes (Licor) with iblot® dry blotting transfer system (ThermoFisher). Nonspecific binding was blocked by incubating membranes with Intercept Blocking Buffer (Licor) for 1 hour at room temperature with gentle shaking. The membranes were then incubated overnight at 4° C. with Primary antibodies rabbit anti-AR (1:1,000, Cell Signaling, 5153) and mouse anti-GAPDH (1:5,000, Santa Cruz Biotechnology, sc-47724) diluted in Intercept Blocking Buffer containing 0.1% Tween 20. After washing 3 times with TBS-T, the membranes were incubated with IRDye® […] goat anti-mouse IgG (1:20,000, Licor) or IRDye® […] goat anti-rabbit IgG (1:20,000, Licor) for 1 hour. After TBS-T washes, membranes were rinsed in TBS and scanned on Odyssey® CLx Imaging System (Licor). The bands were quantified using Image Studio™ Software (Licor).
(§2) Tables 5 and 6 summarize the androgen receptor (AR) degradative activity of exemplary compounds in LNCAP, VCAP and 22Rv1 cell lines 24 hours after administration. DC50: compound concentration needed for 50% target protein degradation.
(In general: In western blotting, separated proteins are transferred to a membrane and probed.)

The subject of test [3] is androgen receptor (AR). Briefly: AR degradation in 22Rv1 cells (Western blot). Here is the method: as §1, §2

Changes are numbered by the printed parent chain. Where only a bound is given, the exact number is not on record here.

A word on the DC50: it is the concentration giving 50% degradation. Higher therefore signals degradation only at high concentration. With `C[C@@H]1CN(c2ccc(C#N)c(Cl)c2)[C@@H](C)CN1C(=O)Nc1ccc(N2CCC(CN3CCN(c4ccc5c(c4)C(=O)N(C4CCC(=O)NC4=O)C5=O)CC3)CC2)nc1` (stereo partly drawn) [Compound 1-14, (2R,5S)-4-(3-chloro-4-cyanophenyl)-N-(6-(4-((4-(2-(2,6-dioxopiperidin-3-yl)-1,3-dioxoisoindolin-5-yl)piperazin-1-yl)methyl)piperidin-1-yl)pyridin-3-yl)-2,5-dimethylpiperazine-1-carboxamide], the DC50 on androgen receptor (AR) [1] and on androgen receptor (AR) [2] was at most 0.01 µM in each case.
As to `C[C@@H]1CN(c2ccc(C#N)c(Cl)c2)[C@@H](C)CN1C(=O)Nc1cnc(N2CCC(CN3CCN(c4ccc5c(c4)C(=O)N(C4CCC(=O)NC4=O)C5=O)CC3)CC2)nc1` (stereo partly drawn) [Compound 1-20, (2R,5S)-4-(3-chloro-4-cyanophenyl)-N-(2-(4-((4-(2-(2,6-dioxopiperidin-3-yl)-1,3-dioxoisoindolin-5-yl)piperazin-1-yl)methyl)piperidin-1-yl)pyrimidin-5-yl)-2,5-dimethylpiperazine-1-carboxamide], the DC50 at androgen receptor (AR) [1] and in the test with androgen receptor (AR) [3] was at most 0.01 µM each time.
In the case of `C[C@@H]1CN(c2ccc(C#N)c(Cl)c2)[C@@H](C)CN1C(=O)Nc1cnc(N2CCC(CN3CCN(c4ccc5c(c4)C(=O)N(C4CCC(=O)NC4=O)C5=O)CC3)CC2)nc1` (stereo partly drawn) [Compound 1-21, (2R,5S)-4-(3-chloro-4-cyanophenyl)-N-(2-(4-((4-(2-(2,6-dioxopiperidin-3-yl)-1,3-dioxoisoindolin-5-yl)piperazin-1-yl)methyl)piperidin-1-yl)pyrimidin-5-yl)-2,5-dimethylpiperazine-1-carboxamide], the half-maximal degradation concentration (DC50) on androgen receptor (AR) [1] and on androgen receptor (AR) [2] was at most 0.01 µM each time.
As for `C[C@@H]1CN(C(=O)Nc2cnc(N3CCC(CN4CCN(c5ccc6c(c5)C(=O)N(C5CCC(=O)NC5=O)C6=O)CC4)CC3)nc2)[C@@H](C)CN1c1ccc(C#N)c(Cl)c1` (stereo partly drawn) [Compound 1-22, (2S,5R)-4-(3-chloro-4-cyanophenyl)-N-(2-(4-((4-(2-(2,6-dioxopiperidin-3-yl)-1,3-dioxoisoindolin-5-yl)piperazin-1-yl)methyl)piperidin-1-yl)pyrimidin-5-yl)-2,5-dimethylpiperazine-1-carboxamide], the DC50 on androgen receptor (AR) [1] and at androgen receptor (AR) [2] was above 0.1 µM each time.
Consider `COc1cc(N2C[C@@H](C)N(C(=O)Nc3ccc(N4CCC(CN5CCN(c6ccc7c(c6)C(=O)N(C6CCC(=O)NC6=O)C7=O)CC5)CC4)nc3)C[C@@H]2C)ccc1C#N` (stereo partly drawn) [Compound 1-26, (2R,5S)-4-(4-cyano-3-methoxyphenyl)-N-(6-(4-((4-(2-(2,6-dioxopiperidin-3-yl)-1,3-dioxoisoindolin-5-yl)piperazin-1-yl)methyl)piperidin-1-yl)pyridin-3-yl)-2,5-dimethylpiperazine-1-carboxamide], for which the DC50 on androgen receptor (AR) [1] and at androgen receptor (AR) [2] was at most 0.01 µM in each case.
For the compound `COc1cc(N2C[C@@H](C)N(C(=O)Nc3cnc(N4CCC(CN5CCN(c6ccc7c(c6)C(=O)N(C6CCC(=O)NC6=O)C7=O)CC5)CC4)nc3)C[C@@H]2C)ccc1C#N` (stereo partly drawn) [Compound 1-27, (2R,5S)-4-(4-cyano-3-methoxyphenyl)-N-(2-(4-((4-(2-(2,6-dioxopiperidin-3-yl)-1,3-dioxoisoindolin-5-yl)piperazin-1-yl)methyl)piperidin-1-yl)pyrimidin-5-yl)-2,5-dimethylpiperazine-1-carboxamide], the half-maximal degradation concentration (DC50) on androgen receptor (AR) [1] and on androgen receptor (AR) [2] was at most 0.01 µM each time.
As to `COc1cc(N2C[C@@H](C)N(C(=O)Nc3cc(F)c(N4CCC(CN5CCN(c6ccc7c(c6)C(=O)N(C6CCC(=O)NC6=O)C7=O)CC5)CC4)cc3F)C[C@@H]2C)ccc1C#N` (stereo partly drawn) [Compound 1-29, (2R,5S)-4-(4-cyano-3-methoxyphenyl)-N-(4-(4-((4-(2-(2,6-dioxopiperidin-3-yl)-1,3-dioxoisoindolin-5-yl)piperazin-1-yl)methyl)piperidin-1-yl)-2,5-difluorophenyl)-2,5-dimethylpiperazine-1-carboxamide], the DC50 at androgen receptor (AR) [1] and on androgen receptor (AR) [2] was at most 0.01 µM throughout.
For the compound `C[C@@H]1CN(c2ccc(C#N)c(C(F)(F)F)c2)[C@@H](C)CN1C(=O)Nc1ccc(N2CCC(CN3CCN(c4ccc5c(c4)C(=O)N(C4CCC(=O)NC4=O)C5=O)CC3)CC2)nc1` (stereo partly drawn) [Compound 1-30, (2R,5S)-4-(4-cyano-3-(trifluoromethyl)phenyl)-N-(6-(4-((4-(2-(2,6-dioxopiperidin-3-yl)-1,3-dioxoisoindolin-5-yl)piperazin-1-yl)methyl)piperidin-1-yl)pyridin-3-yl)-2,5-dimethylpiperazine-1-carboxamide], the 50% degradation concentration (DC50) on androgen receptor (AR) [1] and on androgen receptor (AR) [2] was at most 0.01 µM in each case.
`C[C@@H]1CN(c2ccc(C#N)c(C(F)(F)F)c2)[C@@H](C)CN1C(=O)Nc1cnc(N2CCC(CN3CCN(c4ccc5c(c4)C(=O)N(C4CCC(=O)NC4=O)C5=O)CC3)CC2)nc1` (stereo partly drawn) [Compound 1-31, (2R,5S)-4-(4-cyano-3-(trifluoromethyl)phenyl)-N-(2-(4-((4-(2-(2,6-dioxopiperidin-3-yl)-1,3-dioxoisoindolin-5-yl)piperazin-1-yl)methyl)piperidin-1-yl)pyrimidin-5-yl)-2,5-dimethylpiperazine-1-carboxamide]: the DC50 at androgen receptor (AR) [1] and on androgen receptor (AR) [2] was at most 0.01 µM each time.
Take `C[C@@H]1CN(c2ccc(C#N)c(C(F)(F)F)c2)[C@@H](C)CN1C(=O)Nc1ccc(N2CCC(CN3CCN(c4ccc5c(c4)CN([C@H]4CCC(=O)NC4=O)C5=O)CC3)CC2)nc1` [Compound 1-43, (2R,5S)-4-(4-cyano-3-(trifluoromethyl)phenyl)-N-(6-(4-((4-(2-((S)-2,6-dioxopiperidin-3-yl)-1-oxoisoindolin-5-yl)piperazin-1-yl)methyl)piperidin-1-yl)pyridin-3-yl)-2,5-dimethylpiperazine-1-carboxamide]: the DC50 on androgen receptor (AR) [1], at androgen receptor (AR) [2] and with androgen receptor (AR) [3] was at most 0.01 µM each time.
